# Results as given in patent US12728137B2, “Methods of treating cancer with a combination of mithramycin and immunotherapy” (University of South Florida, priority 2019, dated 2026).
# Tested on: CT26 cells
# Test: CT26 cell viability with TGFβI and/or Mit-A (CellTiter-Glo)
# Assay type: cell-based, mouse
# Conditions: LY2109761 (5 μM) and/or 150 nM Mit-A for 48 hrs; FIG. 9
# Description: FIG. 9 depicts a bar graph of cell viability assayed by CellTiter-Glo of CT26 cells that were cultured in the presence of TGFβI, LY2109761 (5 μM) and/or 150 nM Mit-A for 48 hrs.
# Mit-A potentiates the inhibitory effects of transforming growth factor β (TGFβ): TGFβ activated stroma is one of the defining features of MSS CRCs^33. […] However, inhibition of TGFβ in these tumors induced a potent anti-tumor response. Since Sp1 is implicated in TGFβ induced tumor invasion, whether inhibition of TGFβ signaling will promote sensitization of CT26 cells to Mit-A was examined.
smiles,measurement,value
c1ccc(-c2nn3c(c2-c2ccnc4cc(OCCN5CCOCC5)ccc24)CCC3)nc1 [LY2109761],CT26 cell viability,did not inhibit
